In patent US20120045835A1, “PORTABLE DEVICE BASED ON IMMOBILIZED CELLS FOR THE DETECTION OF ANALYTES” (priority 2009, published 2012):

Assays:
[1] = system: recombinant E. coli cells specific for Cu^2+; experiment: Calibration curve for copper with immobilized bioluminescent biosensor and control strain; type: cell-based; settings: E. coli immobilized in the matrix; signal corrected with control strain constitutively expressing firefly luciferase
Procedure: For each calibration curve a limit of detection is calculated (LOD) according to the standard deviation on the blank signal measured with the calibration curve. It is provided by the analyte concentration corresponding to the signal XLOD:
A calibration curve for copper was performed by employing recombinant E. coli cells specific for Cu^2+ and a control strain that constitutively express firefly luciferase. The use of a control strain allows to correct the analytical signal with a detection limit of 0.05 ppm for Cu^2+.
Cells are grown in selective liquid medium at 37° C. (e.g., Luria Bertani Broth with antibiotic for plasmid maintenance) for each strain up to an optical density at 600 nm in the range 0.6-0.8.
Then, a buffered solution at pH 6.5-7.5 is added to each cell suspension containing nutrients and is mixed 1:2-1:4 with the immobilization matrix.
A solution containing 1% atelocollagen in PBS (NaCl 137 mM, KCl 2.7 mM, NaH2PO4 1.4 mM, Na2HPO4 4.3 mM) at pH 7.4 with decorin final concentration 15% w/w atelocollagen.
Polyvinylpyrrolidone (PVP) and modified polysiloxanes (e.g., polydimethylsiloxane, tetraethyl-orthosilicate) are added to a final concentration of 1% and 0.4%, respectively.

[2] = system: yeast cells specific to estrogens; experiment: Calibration curves for 17-β estradiol with immobilized yeast biosensor; type: cell-based; settings: yeast immobilized in matrix (2% atelocollagen, 0.5% polydimethylsiloxane); similar to liquid cultures
Excerpt: For example, the device employs S. cerevisiae cells specific for compounds with estrogenic/androgenic activity: for this aim an integrative vector with a regulatory element containing two or more tandem copies of the Androgen or Estrogen Responsive Element (ARE/ERE) upstream of the gene encoding for the bioluminescent reporter protein (e.g., luciferase from P. pyralis) and a vector encoding for human androgen or estrogen receptor were introduced in S. cerevisiae cells (A new highly specific and robust yeast androgen bioassay for the detection of agonists and antagonists Toine F. H. Boyce, Richard J. R. Helsdingen, Astrid R. M. Hamers, Majorie B. M. van Duursen, Michel W. F. Nielen, and Ron L. A. P. Hoogenboom). In this work, GFP is used as fluorescent reporter gene that also finds application in the present invention.
Analogously to Example 3, but with slight modifications to single components of the immobilization matrix (2% atelocollagen and 0.5% polydimethylsiloxane), a biosensor based on yeast cells specific to estrogens was immobilized.
Recombinant cells are grown in SC liquid culture (synthetic complete, selective for plasmid auxotrophies) at 30° C. up to an optical density at 600 nm of 0.6. Then, cells are immobilized as previously described.

Row | SMILES | detection limit [1] | limit of detection [2]
1 | [Cu+2] [Cu^2+] | 0.05 ppm | –
2 | C[C@]12CC[C@@H]3c4ccc(O)cc4CC[C@H]3[C@@H]1CC[C@@H]2O [17-β estradiol] | – | 10 pM
